For 27 molecules, IC50 results are on record in patent US10173991B2, “Sulfone amide linked benzothiazole inhibitors of endothelial lipase” (BRISTOL-MYERS SQUIBB COMPANY, priority 2014, dated 2019).

For this experiment, the target named is Endothelial lipase (EL) (Homo sapiens (Human), UniProt Q9Y5X9). Description: Endothelial lipase (EL) enzymatic assay with fluorescent substrate A10070 in DMPG vesicles. Format: biochemical. The essentials: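 Compounds were preincubated with enzyme for 30 min at 37° C before FRET-substrate vesicles (A10070 in DMPG, 0.11 mole fraction) were added. Reaction rates were obtained from the 300–900 sec slope of fluorescence at 490/530 nm.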
Sequence of Endothelial lipase (EL) (Q9Y5X9 21-500): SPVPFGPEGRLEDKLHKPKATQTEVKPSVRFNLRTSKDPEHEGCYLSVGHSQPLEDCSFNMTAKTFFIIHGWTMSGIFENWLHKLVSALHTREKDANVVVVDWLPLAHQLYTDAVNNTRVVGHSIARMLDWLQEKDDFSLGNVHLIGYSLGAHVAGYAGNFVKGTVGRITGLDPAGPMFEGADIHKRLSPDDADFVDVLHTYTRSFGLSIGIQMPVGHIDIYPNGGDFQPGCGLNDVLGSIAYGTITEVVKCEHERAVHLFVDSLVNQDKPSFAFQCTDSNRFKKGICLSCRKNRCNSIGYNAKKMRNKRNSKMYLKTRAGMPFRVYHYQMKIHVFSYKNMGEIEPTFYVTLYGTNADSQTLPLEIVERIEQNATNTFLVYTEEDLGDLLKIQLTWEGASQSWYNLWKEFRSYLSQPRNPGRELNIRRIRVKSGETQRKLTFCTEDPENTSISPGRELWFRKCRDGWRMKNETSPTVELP

The structures appear in SMILES notation. pIC50: −log10 of the molar value.

As a reminder, the pIC50 is the IC50 on a negative log10 scale, so that one unit is a factor of ten. Take `COCCNC(=O)c1ccc(-c2ccc3nc(C(C(=O)NCC(=O)NC4CC4)S(=O)(=O)Cc4ccc(F)cc4)sc3c2)cc1` (stereo not drawn) [Example 226, 4-[2-({[(cyclopropyl-carbamoyl)methyl]carbamoyl}(4-fluorophenyl)methanesulfonyl-methyl)-1,3-benzothiazol-6-yl]-N-(2-methoxyethyl) benzamide]: the negative logarithm of the IC50 (pIC50) is 7.04.

In the case of `CC(C)(C)OC(=O)N1CC(S(=O)(=O)C(C(=O)NCC(=O)NC2CC2)c2nc3ccc(-c4ccc(F)nc4)cc3s2)C1` (stereo not drawn) [Example 227, tert-butyl 3-({[(cyclopropyl-carbamoyl)methyl]carbamoyl}[6-(6-fluoropyridin-3-yl)-1,3-benzothiazol-2-yl]methanesulfonyl) azetidine-1-carboxylate], the pIC50 is 6.99.

Take `O=C(CNC(=O)C(c1nc2ccc(-c3cccnc3F)cc2s1)S(=O)(=O)Cc1ccc(F)cc1)NC1CC1` (stereo not drawn) [Example 229, N-[(cyclopropyl-carbamoyl)methyl]-2-[(4-fluorophenyl)methanesulfonyl]-2-[6-(2-fluoropyridin-3-yl)-1,3-benzothiazol-2-yl]acetamide]: the negative-log IC50 (pIC50) is 6.82.

Consider `CC(C)n1cc(-c2ccc3nc(C(C(=O)NCC(=O)NC4CC4)S(=O)(=O)Cc4cccc(C#N)c4)sc3c2)ccc1=O` (stereo not drawn) [Example 230, 2-[(3-cyanophenyl)methanesulfonyl]-N-[(cyclopropyl-carbamoyl)methyl]-2-{6-[6-oxo-1-(propan-2-yl)-1,6-dihydropyridin-3-yl]-1,3-benzothiazol-2-yl}acetamide], for which the pIC50 is 7.34.

`Cc1ncc(-c2cc3sc(C(C(=O)NCC(=O)NC4CC4)S(=O)(=O)C(C)C)nc3cc2F)cn1` (stereo not drawn) [Example 231, N-[(cyclopropyl-carbamoyl)methyl]-2-[5-fluoro-6-(2-methylpyrimidin-5-yl)-1,3-benzothiazol-2-yl]-2-(propane-2-sulfonyl) acetamide] had a negative logarithm of the IC50 (pIC50) of 7.96.

On to `CC(C)S(=O)(=O)C(C(=O)NCC(=O)NC1CC1)c1nc2cc(F)c(-c3cnc(=O)[nH]c3)cc2s1` (stereo not drawn) [Example 232, N-[(cyclopropyl-carbamoyl)methyl]-2-[5-fluoro-6-(2-oxo-1,2-dihydropyrimidin-5-yl)-1,3-benzothiazol-2-yl]-2-(propane-2-sulfonyl) acetamide], for which the pIC50 was 6.91.

The molecule `CC(C)S(=O)(=O)C(C(=O)NCC(=O)NC1CC1)c1nc2cc(F)c(-c3cn(C)c(=O)c4ccccc34)cc2s1` (stereo not drawn) [Example 233, N-[(cyclopropyl-carbamoyl)methyl]-2-[5-fluoro-6-(2-methyl-1-oxo-1,2-dihydro-isoquinolin-4-yl)-1,3-benzothiazol-2-yl]-2-(propane-2-sulfonyl) acetamide] showed a pIC50 of 7.59.

`CC(C)S(=O)(=O)C(C(=O)NCC(=O)NC1CC1)c1nc2cc(F)c(-c3ccc4[nH]c(=O)ccc4c3)cc2s1` (stereo not drawn) [Example 234, N-[(cyclopropyl-carbamoyl)methyl]-2-[5-fluoro-6-(2-oxo-1,2-dihydroquinolin-6-yl)-1,3-benzothiazol-2-yl]-2-(propane-2-sulfonyl) acetamide] gave a pIC50 of 8.22.

Molecule `CC(C)Oc1ccc(-c2cc3sc(C(C(=O)NCC(=O)NC4CC4)S(=O)(=O)C(C)C)nc3cc2F)cn1` (stereo not drawn) [Example 235, N-[(cyclopropyl-carbamoyl)methyl]-2-{5-fluoro-6-[6-(propan-2-yloxy)pyridin-3-yl]-1,3-benzothiazol-2-yl}-2-(propane-2-sulfonyl) acetamide] had a pIC50 of 8.22.

`CC(C)S(=O)(=O)C(C(=O)NCC(=O)NC1CC1)c1nc2cc(F)c(-c3ccc4c(c3)CNC4=O)cc2s1` (stereo not drawn) [Example 236, N-[(cyclopropyl-carbamoyl)methyl]-2-[5-fluoro-6-(1-oxo-2,3-dihydro-1H-isoindol-5-yl)-1,3-benzothiazol-2-yl]-2-(propane-2-sulfonyl) acetamide]: the negative logarithm of the IC50 (pIC50) is 7.80.

In the case of `CC(C)S(=O)(=O)C(C(=O)NCC(=O)NC1CC1)c1nc2cc(F)c(-c3ccc4cnn(C)c4c3)cc2s1` (stereo not drawn) [Example 237, N-[(cyclopropyl-carbamoyl)methyl]-2-[5-fluoro-6-(1-methyl-1H-indazol-6-yl)-1,3-benzothiazol-2-yl]-2-(propane-2-sulfonyl) acetamide], the pIC50 is 8.30.

With `Cc1nc2cc(-c3cc4sc(C(C(=O)NCC(=O)NC5CC5)S(=O)(=O)C(C)C)nc4cc3F)ccc2s1` (stereo not drawn) [Example 238, N-[(cyclopropyl-carbamoyl)methyl]-2-[5-fluoro-6-(2-methyl-1,3-benzothiazol-5-yl)-1,3-benzothiazol-2-yl]-2-(propane-2-sulfonyl)acetamide], the pIC50 was 8.30.

Regarding `CC(C)S(=O)(=O)C(C(=O)NCC(=O)NC1CC1)c1nc2cc(F)c(-c3ccc4c(c3)C(=O)NC4)cc2s1` (stereo not drawn) [Example 239, N-[(cyclopropyl-carbamoyl)methyl]-2-[5-fluoro-6-(3-oxo-2,3-dihydro-1H-isoindol-5-yl)-1,3-benzothiazol-2-yl]-2-(propane-2-sulfonyl)acetamide], the negative-log IC50 (pIC50) was 7.80.

The molecule `Cc1cc(-c2cc3sc(C(C(=O)NCC(=O)NC4CC4)S(=O)(=O)C(C)C)nc3cc2F)cnn1` (stereo not drawn) [Example 240, N-[(cyclopropylcarbamoyl)methyl]-2-[5-fluoro-6-(6-methylpyridazin-4-yl)-1,3-benzothiazol-2-yl]-2-(propane-2-sulfonyl) acetamide] gave a pIC50 of 6.72.

With `CC(C)S(=O)(=O)C(C(=O)NCC(=O)NC1CC1)c1nc2cc(F)c(-c3ccc(C4CC4)nc3)cc2s1` (stereo not drawn) [Example 241, N-[(cyclopropyl-carbamoyl)methyl]-2-[6-(6-cyclopropyl-pyridin-3-yl)-5-fluoro-1,3-benzothiazol-2-yl]-2-(propane-2-sulfonyl) acetamide], the pIC50 was 7.77.

Take `CC(C)S(=O)(=O)C(C(=O)NCC(=O)NC1CC1)c1nc2cc(F)c(-c3ccc4c(=O)n(C)ccc4c3)cc2s1` (stereo not drawn) [Example 242, N-[(cyclopropyl-carbamoyl)methyl]-2-[5-fluoro-6-(2-methyl-1-oxo-1,2-dihydro-isoquinolin-6-yl)-1,3-benzothiazol-2-yl]-2-(propane-2-sulfonyl) acetamide]: the pIC50 is 8.40.

The molecule `CC(C)S(=O)(=O)C(C(=O)NCC(=O)NC1CC1)c1nc2cc(F)c(-c3cnc(C4CC4)nc3)cc2s1` (stereo not drawn) [Example 243, N-[(cyclopropyl-carbamoyl)methyl]-2-[6-(2-cyclopropyl-pyrimidin-5-yl)-5-fluoro-1,3-benzothiazol-2-yl]-2-(propane-2-sulfonyl) acetamide] showed a pIC50 of 7.48.

In the case of `CC(C)S(=O)(=O)C(C(=O)NCC(=O)NC1CC1)c1nc2cc(F)c(-c3ccc(C(=O)N4CCC4)cc3)cc2s1` (stereo not drawn) [Example 244, 2-{6-[4-(azetidine-1-carbonyl)phenyl]-5-fluoro-1,3-benzothiazol-2-yl}-N-[(cyclopropyl-carbamoyl)methyl]-2-(propane-2-sulfonyl)acetamide], the pIC50 was 8.15.

`Cc1cc(-c2cc3sc(C(C(=O)NCC(=O)NC4CC4)S(=O)(=O)C(C)C)nc3cc2F)ccn1` (stereo not drawn) [Example 245, N-[(cyclopropyl-carbamoyl)methyl]-2-[5-fluoro-6-(2-methylpyridin-4-yl)-1,3-benzothiazol-2-yl]-2-(propane-2-sulfonyl)acetamide] showed a pIC50 of 7.92.

Molecule `Cc1ccc(-c2cc3sc(C(C(=O)NCC(=O)NC4CC4)S(=O)(=O)C(C)C)nc3cc2F)cn1` (stereo not drawn) [Example 246, N-[(cyclopropyl-carbamoyl)methyl]-2-[5-fluoro-6-(6-methylpyridin-3-yl)-1,3-benzothiazol-2-yl]-2-(propane-2-sulfonyl)acetamide] gave a pIC50 of 7.92.

`CC(C)S(=O)(=O)C(C(=O)NCC(=O)NC1CC1)c1nc2cc(F)c(-c3ccc(C(=O)Nc4nccs4)cc3)cc2s1` (stereo not drawn) [Example 247, 4-[2-({[(cyclopropyl-carbamoyl)methyl]carbamoyl} (propane-2-sulfonyl)methyl)-5-fluoro-1,3-benzothiazol-6-yl]-N-(1,3-thiazol-2-yl) benzamide]: the pIC50 was 7.96.

In turn, `Cc1nc2cc(-c3cc4sc(C(C(=O)NCC(=O)NC5CC5)S(C)(=O)=O)nc4cc3F)ccc2s1` (stereo not drawn) [Example 248, N-[(cyclopropyl-carbamoyl)methyl]-2-[5-fluoro-6-(2-methyl-1,3-benzothiazol-5-yl)-1,3-benzothiazol-2-yl]-2-methanesulfonyl-acetamide] showed a pIC50 of 9.00.

On to `CC(C)S(=O)(=O)C(C(=O)NCC(=O)NC1CC1)c1nc2cc(F)c(-c3ccc(C#N)nc3)cc2s1` (stereo not drawn) [Example 249, 2-[6-(6-cyanopyridin-3-yl)-5-fluoro-1,3-benzothiazol-2-yl]-N-[(cyclopropyl-carbamoyl)methyl]-2-(propane-2-sulfonyl)acetamide], for which the pIC50 is 7.54.

In turn, `Cc1cc(-c2cc3sc(C(C(=O)NCC(=O)NC4CC4)S(C)(=O)=O)nc3cc2F)ccn1` (stereo not drawn) [Example 250, N-[(cyclopropyl-carbamoyl)methyl]-2-[5-fluoro-6-(2-methylpyridin-4-yl)-1,3-benzothiazol-2-yl]-2-methanesulfonyl-acetamide] showed a pIC50 of 7.96.

As for `CC(C)c1ccc(-c2cc3sc(C(C(=O)NCC(=O)NC4CC4)S(=O)(=O)C(C)C)nc3cc2F)cn1` (stereo not drawn) [Example 251, N-[(cyclopropyl-carbamoyl)methyl]-2-{5-fluoro-6-[6-(propan-2-yl)pyridin-3-yl]-1,3-benzothiazol-2-yl}-2-(propane-2-sulfonyl) acetamide], the pIC50 is 8.10.

Regarding `Cc1ccc(-c2cc3sc(C(C(=O)NCC(=O)NC4CC4)S(=O)(=O)C(C)C)nc3cc2C)cn1` (stereo not drawn) [Example 252, N-[(cyclopropyl-carbamoyl)methyl]-2-[5-methyl-6-(6-methylpyridin-3-yl)-1,3-benzothiazol-2-yl]-2-(propane-2-sulfonyl)acetamide], the pIC50 is 7.82.

For `Cc1cc2nc(C(C(=O)NCC(=O)NC3CC3)S(=O)(=O)C(C)C)sc2cc1-c1ccc(C(C)C)nc1` (stereo not drawn) [Example 253, N-[(cyclopropyl-carbamoyl)methyl]-2-{5-methyl-6-[6-(propan-2-yl)pyridin-3-yl]-1,3-benzothiazol-2-yl}-2-(propane-2-sulfonyl) acetamide], the pIC50 is 8.15.
